We go through eight compounds from patent US20110044936A1, “Composition for Attracting Bed Bugs” (priority 2009, published 2011).

What all share (assay type): in vivo
The test system of assay [1] is bed bugs (Cimex lectularius). In words: Bed bug aggregation (attraction) assay, Petri dish arena with treated and control filter paper tents (Example 1). The method, then: Attraction Assays: Assay arenas were made from 150×15 mm plastic Petri dishes (VWR#25384-326) containing a 125 mm piece off qualitative filter paper (VWR#28320-100) glued to the bottom using 3M Super 77® multipurpose spray adhesive. A 80 mm hole was cut into the lid and a 500 um mesh Nytex® screen (Bioquip, #7293B) was glued to cover the opening using quick epoxy. Fresh bottom dishes were used in each assay. For these experiments 2.4 cm filter paper folded to create a tent were treated with either a control treatment (10 microliters of silicone oil for aldehyde controls and 5 microliters of deionized water for acid controls) or 10 microliters of the experimental test treatment diluted in silicone oil (aldehydes) or 5 microliters of the experimental chemical diluted in deionized water (acids). Ten bed bugs per test were released into the assay arena for the aldehyde test treatments and controls, five bed bugs per test were released into the assay arena for the acid test treatments. Day cycling bed bugs (Cimex lectularius), 12 hour light: 12 hour dark (7 AM On: 7 PM Off) light cycle, were incubated and evaluated under normal room lighting conditions at room temperature. Readings were taken at 1 hour intervals from the release of bed bugs for 4 hours for aldehydes and one hour for acids, due to the quick volatility of the acids. The number of bed bugs under the control filter paper disk and the number of bed bugs under the test treatment filter paper disk were recorded. The test treatment was considered to be an attractant if the number of bed bugs under the experimental filter disk was greater than the number under the control filter disk. Table 1 below summarizes the experimental data, the experimental test treatments considered as attractants are in bold.

The subject of assay [2] is bed bugs (Cimex lectularius). In words: Bed bug aggregation assay, mixtures of Hexenal and Octenal (Example 2). Conditions: about 30 ppm in silicone oil; for Number of bed bugs under experimental (Exp) disk: 5 microliters, ten bed bugs, average of two tests. The method, then: Attraction Assays: […] For this experiment, mixtures of Hexenal and Octenal were diluted in silicone oil at the following ratios: 100:0; 75:25; 50:50; 25:75; and 0:100. […] Readings were taken hourly for four hours from the release of bed bugs in the assay arena. The number of bed bugs under the control disk and the number of bed bugs under the experimental disk were recorded. The test treatment was considered to be an attractant if the number of bed bugs under the experimental filter disk was greater than the number under the control disk. Table 2 below summarizes the experimental data, the experimental test treatments considered as attractants are in bold.

Assay [3] relates to bed bugs (Cimex lectularius). Nature of the assay: Test arena gas assay, compounds dissolved in nonane (Example 5). To be noted: for % Bed bugs in Experimental Zone: after two hour exposure, released from nonane solution at 150.0-184.8 nanograms/hour @ 100 mL/min air flow, test gas 21-22 °C, control gas compressed air; for Attraction of bed bugs to gaseous mixture: test arena, two hour exposure, versus control gas. The source says: A test arena was constructed from a 60×40×22 cm (L:W:H) polystyrene container. A 60×40 cm piece of filter paper was glued on the bottom to provide a walking surface for the bed bugs. At one end of the test arena, a triangular piece of plastic (16 cm high×25 cm long) was glued to the middle of the side and bottom of the container to create test zones of equal area on either side of the partition. On each side of this partition a piece of Tygon® tubing was inserted through a hole 7 cm above the bottom of each test zone to deliver a control gas to one side of the partition (control zone) and the experimental gas to the other side of the partition (experimental zone). The tubing was positioned to deliver the gases downward into the test zones with each outlet 6 cm above the filter paper glued to the bottom of the container. At the other end of the test arena, a 4 W night light was placed 35 cm above the bottom of the arena and regulated to a 12 hour light:12 hour dark (7 AM On: 7 PM Off) light cycle. Also placed adjacent to the night light was a small fan (Boston, cat#EHSDF) to create a gentle removal of gases from the distal part of the arena. Air released by the experimental and control gases was contained within their partitions and were gently drawn away from the respective air inputs, mixed within the arena and removed by the fan. This created a laminar flow where the bed bugs had opportunity to select either the experimental or control gas. Fifty bed bugs (Cimex lectularius) were entrapped within an inverted 90 mm Petri dish at a position furthest from the control and experimental zones until bed bugs were quiescent. Removal of the Petri dish started the experiment and readings were taken every hour for two hours. Data collected were number of bed bugs in the experimental, control and free arena zones. In addition, gas temperature, relative humidity, air flow rate, and percent CO2 data were collected. The experimental gas was considered to be an attractant if more bed bugs were in the experimental zone than in the control zone.
Determination of Bed Bug Aggregation Effect Using Hexenal, Butyric Acid, trans-2-Hexen-1-al Diethylacetal, Trimethylsilyl Butyrate or Methyl Butyrate Dissolved in an Alkane Solvent Using the test arena and methods described in Example 4, test treatments containing about 300 ppm of a pro-aldehyde compound, trans-2-hexen-1-al diethylacetal, dissolved in nonane, about 300 ppm of Hexenal dissolved in nonane, about 200 ppm of butyric acid dissolved in nonane and about 200 ppm of a pro-organic acid compound, trimethylsilyl butyrate or methyl butyrate, dissolved in nonane were prepared. Separate 100 micro liter pipettes (Drummond Wiretrol 100 μL) were filled with the test solutions. One end of each micro liter pipette was sealed with parafilm leaving one end of each open. […] An air tight lid was placed onto the plastic container and the container was installed in-line after humidity and temperature conditioning of the gas and before the gas entered the arena. The micro liter pipettes were weighed before and after use to determine the amount of the test compounds released. The control gas used for these experiments consisted of house compressed air.

The mark [4] stands for this setting: organic acid 10 ppm in deionized water, 5 microliters, one hour, five bed bugs, average of two tests.
Where [5] appears, read: organic acid 50 ppm in deionized water, 5 microliters, one hour, five bed bugs, average of two tests.
The mark [6] stands for this setting: organic acid 100 ppm in deionized water, 5 microliters, one hour, five bed bugs, average of two tests.
[7] abbreviates: organic acid 1000 ppm in deionized water, 5 microliters, one hour, five bed bugs, average of two tests.
Where [8] appears, read: 1 ppm in silicone oil, 10 microliters, 1 Hour, ten bed bugs, average of two tests.
The mark [9] stands for this setting: 1 ppm in silicone oil, 10 microliters, 2 Hour, ten bed bugs, average of two tests.
Where [10] appears, read: 1 ppm in silicone oil, 10 microliters, 3 Hour, ten bed bugs, average of two tests.
[11] abbreviates: 1 ppm in silicone oil, 10 microliters, 4 Hour, ten bed bugs, average of two tests.
[12] abbreviates: 10 ppm in silicone oil, 10 microliters, 1 Hour, ten bed bugs, average of two tests.
Where [13] appears, read: 10 ppm in silicone oil, 10 microliters, 2 Hour, ten bed bugs, average of two tests.
Where [14] appears, read: 10 ppm in silicone oil, 10 microliters, 3 Hour, ten bed bugs, average of two tests.
Where [15] appears, read: 10 ppm in silicone oil, 10 microliters, 4 Hour, ten bed bugs, average of two tests.
Where [16] appears, read: 100 ppm in silicone oil, 10 microliters, 1 Hour, ten bed bugs, average of two tests.
Where [17] appears, read: 100 ppm in silicone oil, 10 microliters, 2 Hour, ten bed bugs, average of two tests.
Where [18] appears, read: 100 ppm in silicone oil, 10 microliters, 3 Hour, ten bed bugs, average of two tests.
Setting [19] is: 100 ppm in silicone oil, 10 microliters, 4 Hour, ten bed bugs, average of two tests.
Where [20] appears, read: 1000 ppm in silicone oil, 10 microliters, 1 Hour, ten bed bugs, average of two tests.
Setting [21] is: 1000 ppm in silicone oil, 10 microliters, 2 Hour, ten bed bugs, average of two tests.
Setting [22] is: 1000 ppm in silicone oil, 10 microliters, 3 Hour, ten bed bugs, average of two tests.
Where [23] appears, read: 1000 ppm in silicone oil, 10 microliters, 4 Hour, ten bed bugs, average of two tests.
The mark [24] stands for this setting: 10000 ppm in silicone oil, 10 microliters, 1 Hour, ten bed bugs, one test.
Setting [25] is: 10000 ppm in silicone oil, 10 microliters, 2 Hour, ten bed bugs, one test.
The mark [26] stands for this setting: 10000 ppm in silicone oil, 10 microliters, 3 Hour, ten bed bugs, one test.
The mark [27] stands for this setting: 10000 ppm in silicone oil, 10 microliters, 4 Hour, ten bed bugs, one test.
The mark [28] stands for this setting: at a high concentration of about 10,000 ppm.

On to `CC(=O)O` [Acetic acid, reference compound], for which the “Number of bed bugs under experimental (Exp) filter paper disk” value (shortened to “Number … (Exp) filter paper disk”) is 0 in assay [1] (setting [4]); 1 in assay [1] (setting [5]); 1 in assay [1] (setting [6]); 3 in assay [1] (setting [7]); 3 in assay [1] (organic acid 10000 ppm in deionized water, 5 microliters, one hour, five bed bugs, average of two tests).
Regarding `O=CO` [Formic acid, reference compound], the “Number … (Exp) filter paper disk” value in assay [1] (setting [4]) is reported as 0; in assay [1] (setting [5]), 1; in assay [1] (setting [6]) it was 1; in assay [1] (setting [7]) it was 3.
As for `CCC/C=C/C=O` [Hexenal, trans-2-hexen-1-al], the “Number … (Exp) filter paper disk” value in assay [1] (setting [8]) was 4; in assay [1] (setting [9]) it was 6; in assay [1] (setting [10]), 6.5; in assay [1] (setting [11]), 6; in assay [1] (setting [12]), 3; in assay [1] (setting [13]) it was 3.5. In addition, the “Number … (Exp) filter paper disk” value in assay [1] (setting [14]) is given as 4; in assay [1] (setting [15]), 5.5; in assay [1] (setting [16]), 6.5; in assay [1] (setting [17]), 8; in assay [1] (setting [18]), 9; in assay [1] (setting [19]) it was 8.5. Also, the “Number … (Exp) filter paper disk” value in assay [1] (setting [20]) is recorded as 6; in assay [1] (setting [21]), 7; in assay [1] (setting [22]) it was 9; in assay [1] (setting [23]), 9; in assay [1] (setting [24]), 0; in assay [1] (setting [25]) it was 1. Moreover, the “Number … (Exp) filter paper disk” value in assay [1] (setting [26]) and in assay [1] (setting [27]) was 1 each time. For the same compound, the “Attractiveness to bed bugs” value in assay [1] (setting [28]) is reported as “much less attractive”. Moreover, the “Number of bed bugs under experimental (Exp) disk” value is on record as 3 in assay [2] (1 Hour), 3 in assay [2] (2 Hour), 4.5 in assay [2] (3 Hour) and 5 in assay [2] (4 Hours). Moreover, the “% Bed bugs in Experimental Zone” value in assay [3] was found to be 38.0%. In assay [3], the “Attraction of bed bugs to gaseous mixture” value is “attracted”.
Take `CCCCC/C=C/C=O` [Octenal, trans-2-octen-1-al]: the “Number … (Exp) filter paper disk” value in assay [1] (setting [8]) is listed as 1; in assay [1] (setting [9]), 2; in assay [1] (setting [10]), 3.5; in assay [1] (setting [11]) it was 5; in assay [1] (setting [12]), 2; in assay [1] (setting [13]) it was 4. Further, the “Number … (Exp) filter paper disk” value was 4.5 in assay [1] (setting [14]); 4 in assay [1] (setting [15]); 5 in assay [1] (setting [16]); 6.5 in assay [1] (setting [17]); 7 in assay [1] (setting [18]); 6.5 in assay [1] (setting [19]). Besides, the “Number … (Exp) filter paper disk” value is 5 in assay [1] (setting [20]); 4.5 in assay [1] (setting [21]); 5 in assay [1] (setting [22]); 5 in assay [1] (setting [23]); 2 in assay [1] (setting [24]); 2 in assay [1] (setting [25]). The “Number … (Exp) filter paper disk” value was 2 in assay [1] (setting [26]) and 4 in assay [1] (setting [27]). The “Attractiveness to bed bugs” value in assay [1] (setting [28]) is “much less attractive”; in assay [1] (at concentrations below about 100 ppm), “less attractive”. Besides, the “Number of bed bugs under experimental (Exp) disk” value in assay [2] (1 Hour) is on record as 7.5; in assay [2] (2 Hour), 7.5; in assay [2] (3 Hour), 9; in assay [2] (4 Hours) it was 8.5. Moreover, in assay [2] (compared among H:O ratios), the “Attraction of bed bugs to experimental filter disks” value was “most bed bugs were attracted”.
With `CCCC(=O)O[Si](C)(C)C` [Trimethylsilyl butyrate, trimethylsilyl butyrate], in assay [3], the “% Bed bugs in Experimental Zone” value turned out to be 9% and the “Attraction of bed bugs to gaseous mixture” value is given as “attracted”.
For the compound `CCCCC=O` [Valeraldehyde, reference compound], in assay [1] (10 milligrams delivered in 10 microliters methanol solution, one experimental disk versus 6 methanol control disks, 1 Hour, average of two tests), the “Number … (Exp) filter paper disk” value is 0.1. In assay [1] (saturated aldehyde, 10 milligrams on disk, one hour), the “Attractiveness to bed bugs” value is recorded as “not attractive”.
For the compound `CCCC(=O)OC` [methyl butyrate], in assay [3], the “% Bed bugs in Experimental Zone” value stood at 34.0% and the “Attraction of bed bugs to gaseous mixture” value is listed as “attracted”.
On the same counts, the results for `CCC/C=C/C(OCC)OCC` [trans-2-hexen-1-al diethylacetal] are 28.0% and “attracted”.
